Patent US8455510B2

Legend:
[1] = system: human prostate cancer PC-3 xenograft; assay: PC-3 xenograft on nude mice; settings: 1-5 × 3.5 w; for TV (mm3) d0: baseline
FKBP-12 protein = target: T1, FKBP-12 protein (Homo sapiens, UniProt P62942); assay: SPR (surface plasma resonance) binding with FKBP-12
T1 construct: purchased sigma Co
Experimental: (1) FKBP-12 protein was purchased from sigma Co.
(2) HBS-EP buffer solution (10 mM Hepes, 150 mM NaCl, 3.4 mM EDTA, 0.005% (v/v) surfactant P20, pH 7.4)
(3) Activating reagents EDC and NHS, and blocking reagents Ethanolamine, etc., were purchased from BIACORE AB Co. (Uppsala, Sweden).
(4) BIAcore 3000 and CM5 chip were purchased from BIACORE AB Co. (Uppsala, Sweden).
(2) […] was coupled to the FC2 channel on CM5 chip by using the Wizard for amino-coupling in Biacore 3000 controlling soft. 3.3 g/L of FKBP-12 protein was diluted with 10 mM NaAC (pH 4.6) to 66 μg/ml. The surface of the chip was washed by injecting a mixture of 0.1M1-(3-dimethylaminopropyl)-3-ethylcarbodiimide hydrochloride (EDCI) and 0.1M N-hydroxysuccinimide (NHS) (1:1) at a flow rate of 20 μL/min for 7 min. After that, the protein solution was injected, and then a 1M cholamine (pH 8.5) solution was fed for 7 min to block the activated surface of the chip. Preliminary screening and pharmacokinetic tests on the compounds
The binding abilities of small molecular compounds with FKBP-12 protein were evaluated by SPR (surface plasma resonance). The stock solution of the compound was 10 mM, and was diluted by HBS-EP buffer solution at given ratios. Pharmacokinetic tests were carried out by the Wizard for kinetic analysis in Biacore 3000 controlling soft. The resulted data were fitted by 1:1 Langmuir binding model or stability model in Biacore 3000 analytical soft to obtain the exact kinetic and thermodynamic constants.

[2] = system: bovine type II collagen-induced arthritis; assay: Bovine type II collagen-induced arthritis; format: in vivo, DBA/1 mice; settings: 1 mg/kg, from 14th day after attack, 3 weeks, FIG. 16, P<0.05

T1 sequence (P62942 whole entry, species assumed): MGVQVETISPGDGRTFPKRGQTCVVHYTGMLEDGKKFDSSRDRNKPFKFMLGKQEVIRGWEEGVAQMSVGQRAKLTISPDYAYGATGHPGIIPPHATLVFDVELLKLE

CO[C@H]1C[C@@H]2CC[C@@H](C)[C@@](O)(O2)C(=O)C(=O)N2CCCC[C@H]2C(=O)O[C@H]([C@H](C)C[C@@H]2CC[C@@H](O)[C@H](OC)C2)CC(=O)[C@H](C)/C=C(\C)[C@@H](O)[C@@H](OC)C(=O)[C@H](C)C[C@H](C)/C=C/C=C/C=C/1C [Rapamycin] was tested, and the “Body Weight (g) end” value ([1]; Table 3, 2.5 mg/kg p.o) was 21.8 g, the “Body Weight (g) start” value ([1]; Table 3, 2.5 mg/kg p.o) was 19.8 g and the RTV ([1]; Table 3, 2.5 mg/kg p.o) was 3.03 ± 1.5. For the same molecule, the “T/C (%)” value ([1]; Table 3, 2.5 mg/kg p.o) was 46.5%, the “TV (mm3) d21” value ([1]; Table 3, 2.5 mg/kg p.o) was 277 ± 98 mm3 and the “TV (mm3) d0” value ([1]; Table 3, 2.5 mg/kg p.o) was 100 ± 39 mm3. The “Body Weight (g) end” value ([1]; Table 3, 5 mg/kg p.o) was 22.2 g, the “Body Weight (g) start” value ([1]; Table 3, 5 mg/kg p.o) was 22.2 g and the RTV ([1]; Table 3, 5 mg/kg p.o) was 2.0 ± 1.2. The “T/C (%)” value ([1]; Table 3, 5 mg/kg p.o) was 30.9%, the “TV (mm3) d21” value ([1]; Table 3, 5 mg/kg p.o) was 170 ± 88 mm3 and the “TV (mm3) d0” value ([1]; Table 3, 5 mg/kg p.o) was 96 ± 38 mm3.

CO[C@H]1C[C@@H]2CC[C@@H](C)[C@@](O)(O2)C(=O)C(=O)N2CCCC[C@H]2C(=O)O[C@H]([C@H](C)C[C@@H]2CC[C@@H](OC(=O)OCC(O)CO)[C@H](OC)C2)CC(=O)[C@H](C)/C=C(\C)[C@@H](O)[C@@H](OC)C(=O)[C@H](C)C[C@H](C)/C=C/C=C/C=C/1C (stereo partly shown) [Y31] was tested, and the “binding with FKBP12” value (FKBP-12 protein) was “concentration-dependently bind”, the Kd (FKBP-12 protein; FKBP12) was 100 pM and the koff (FKBP-12 protein; FKBP12) was 0.11 × 10^−3 S^−1. The kon (FKBP-12 protein; FKBP12) was 1.05 × 10^6 M^−1S^−1, the “R^U (Response Unit) compared with rapamycin” value (FKBP-12 protein; at the same concentration) was “higher” and the “concentration to reach the saturation state for the binding with FKBP12” value (FKBP-12 protein; compared with rapamycin) was “lower than that for rapamycin”. For the same molecule, the “effect on the severe degree of CIA (arthritis score)” value [2] was “significantly reduce the severe degree of CIA”.
